What was measured:
[1] = test system: Pseudomonas syringae pv maculicola ES4326; experiment: Growth of P.s. maculicola ES4326 in SA-/INA-pretreated plants; assay type: in vivo; conditions: for growth of P.s. maculicola ES4326 lower than the untreated control / growth of P.s. maculicola ES4326: wild-type plants treated two days before infection; for growth of P.s. maculicola ES4326: 0 to 3.0 days after infiltration
[2] = test system: Pseudomonas syringae pv maculicola ES4326; experiment: SA-/INA-induced protection against P.s. maculicola ES4326 infection (disease symptoms); assay type: in vivo; conditions: 1 mM SA or 0.65 mM INA two days before P.s. maculicola ES4326; for plants with chlorotic lesions: npr1-1 plants; for plants showing slight yellowing: wild-type plants
Description: To examine whether the lack of SA- or INA-induced PR gene expression would affect SAR protection against a virulent pathogen infection, fifteen-day-old wild-type and npr1-1 plants were treated with either 1 mM SA or 0.65 mM INA, and two days later were exposed to a P.s. maculicola ES4326 bacterial suspension. […] Chlorotic lesions developed in about ninety percent of the untreated wild-type control plants not pretreated with SA or INA. However, such SA- or INA-induced protection was not observed in npr1-1 mutant plants. Chlorotic lesions were clearly seen in over ninety-percent of untreated and at least eighty-percent of SA- or INA-treated plants. The symptoms on npr1-1 were also more severe than on the wild-type plants.

[3] = test system: Arabidopsis thaliana; experiment: Plant tolerance to SA or INA treatment (growth, symptoms); assay type: in vivo; conditions: wild-type and npr1-1 plants; 1 mM SA, 0.65 mM INA
[4] = test system: BGL2-GUS reporter gene; experiment: Quantitative GUS assay of BGL2-GUS reporter plants grown on SA or INA; assay type: in vivo, Arabidopsis thaliana; conditions: 0.5 mM SA, 0.1 mM INA
Description: The M2 seeds were germinated on MS medium with the addition of 0.8% agar, 0.5 mg/mL Mes (2-(N-morpholino)ethane-sulfonic acid), pH 5.7, 2% sucrose, 50 μg/mL kanamycin, and 100 μg/mL ampicillin. […] After incubation for fifteen days, each seedling to be assayed was numbered, and a single leaf was then removed from each seedling and put into the corresponding sample well of a ninety-six-well microtiter plate that contained 100 μL of […] (GUS) substrate solution (50 mM Na2HPO4, pH 7.0, 10 mM Na2EDTA, 0.1% Triton X-100, 0.1% sarkosyl, 0.7 μL/mL β-mercaptoethanol, and 0.7 mg/mL 4-methylumbelliferyl β-D-glucuronide). After all the samples were collected, the microtiter plate was placed under vacuum for two minutes to infiltrate the samples and then incubated at 37° C. overnight. Samples were examined for the fluorescent product of GUS activity (4-methylumbellifone) using a long-wavelength UV light. […] This procedure was repeated in the progeny of these putative mutants to ensure that the mutant phenotype was heritable and to identify the homozygous mutants.
To measure accurately the level of GUS activity, a quantitative GUS assay was performed on npr1-1 plants and the wild-type BGL2-GUS plants grown in the presence of either SA or INA, or in the absence of both. In the absence of an inducer, the background level of GUS activity was five-fold lower in the npr1-1 mutant than in the wild-type. […] Moreover, the induction by 0.1 mM INA was forty-eight-fold for the wild-type versus five-fold for npr1-1. Thus, while GUS activity in the SA- or INA-treated npr1-1 plants was somewhat induced, the activity was at most only slightly higher than the background level of the untreated wild-type.

[5] = test system: PR1 gene; experiment: RNA blot analysis of PR1 induction; assay type: in vivo, Arabidopsis thaliana; conditions: leaves in 0.5 mM INA for twenty-four hours, or SA
Description: Transformants of npr1-2 were grown (22° C. in fourteen hours of light) and selected on MS medium agar (Murashige and Skoog, Physiol Plant. 15:473-497, 1962) containing 2% sucrose, 50 μg/mL kanamycin, and 100 μg/mL ampicillin. Kanamycin-resistant transformants which developed true leaves and healthy roots were transplanted to soil. After two weeks of growth in soil at 22° C. in fourteen hours of light per day, leaves were collected from three transformants of each cosmid clone and soaked in 0.5 mM INA solution for twenty-four hours at 22° C. in fourteen hours of light per day. Leaf tissues were then collected and frozen in liquid nitrogen. Total RNA was extracted from these leaf tissues, and an RNA blot was prepared as described by Cao et al. (Plant Cell 6:1583-1592, 1994). The blot was probed with a PR1-specific probe (a PCR product obtained by amplifying genomic Arabidopsis DNA with PR1-specific primers (sense primer 5′ […]3′ (SEQ ID NO: 19); anti-sense primer 5′ […]3′ (SEQ ID NO: 20)).
These variations were likely to be the result of “position-effects,” the effect of the insertion site in the chromosome on the expression of the transgene. Cosmid clones 21A4-4-3-1, 21A4-6-1-1, 21A4-P5-1, and 21A4-2-1 restored the ability of the npr1-2 mutant to respond to INA induction and, therefore, complemented the npr1-2 mutation.
Transformants carrying each cosmid were also tested for SA induction of PR1 expression by RNA blot analysis Examples of SA induction are shown in FIG. 2A.

[6] = biological target: T1, NPR1-GFP (Arabidopsis thaliana, UniProt P93002); experiment: Subcellular localization of NPR1-GFP by confocal microscopy; assay type: in vivo; conditions: 35S-NPR1-GFP eleven-day-old seedlings grown on MS with SA or INA
T1 construct: expressed in transfected cells; host or cells: Transgenic Arabidopsis npr1-1 and npr1-2 mutant plants (seedlings; leaf mesophyll and guard cells), CaMV 35S promoter
T1 sequence (P93002 1-593): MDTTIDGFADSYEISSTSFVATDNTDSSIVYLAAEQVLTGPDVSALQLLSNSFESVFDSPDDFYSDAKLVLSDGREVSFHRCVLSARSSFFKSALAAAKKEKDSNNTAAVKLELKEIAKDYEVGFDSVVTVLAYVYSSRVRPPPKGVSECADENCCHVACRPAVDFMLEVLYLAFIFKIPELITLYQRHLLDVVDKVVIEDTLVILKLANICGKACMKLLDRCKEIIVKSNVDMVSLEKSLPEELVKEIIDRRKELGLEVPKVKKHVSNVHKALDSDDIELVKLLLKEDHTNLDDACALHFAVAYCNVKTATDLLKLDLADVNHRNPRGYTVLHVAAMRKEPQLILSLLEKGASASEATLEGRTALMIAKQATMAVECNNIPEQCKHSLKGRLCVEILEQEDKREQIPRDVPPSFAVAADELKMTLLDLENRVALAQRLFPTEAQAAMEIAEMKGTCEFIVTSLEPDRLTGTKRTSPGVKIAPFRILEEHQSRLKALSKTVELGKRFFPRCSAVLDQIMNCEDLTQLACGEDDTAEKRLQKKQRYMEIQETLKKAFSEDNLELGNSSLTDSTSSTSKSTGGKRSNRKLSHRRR
Description: To elucidate the induction mechanism and the molecular function of the protein, the subcellular localization of NPR1 was determined by using standard reporter gene fusion construct analysis. The green fluorescent protein (GFP) gene was fused to the carboxyl end of the NPR1 cDNA driven by the constitutive CaMV 35S promoter, and the 35S-NPR1-GFP construct was used to transform npr1 mutants, npr1-1 and npr1-2, according to standard methods.
To examine the subcellular localization of the NPR1 protein, the 35S-NPR1-GFP and 35S-mGFP transgenic lines were grown in MS medium in the presence or absence of the SAR-inducing chemicals SA or INA. Eleven-day-old seedlings were subsequently examined using confocal microscopy to detect localization of NPR1-GFP and mGFP. […] In the 35S-mGFP transformants, green fluorescence was detected in the cytoplasm as well as in the nuclei, and SA and INA treatments had no effect on the localization of the protein. […] In the guard cells, the NPR1 protein was localized in the nuclei even without an SAR induction, an intriguing observation because constitutive activation of defense mechanisms in these cells may be necessary to fend off microbial pathogens from gaining entry into the plant through stomata. […] Consistent with this, the following two potential nuclear localization sequences (NLS's) were found in NPR1: […]

| SMILES | decrease in Psm ES4326 growth ([1]; npr1-2 mutant, 0.65 mM INA seventy-two hours prior to infection) [fold] | growth of P.s. maculicola ES4326 lower than the untreated control [1] [times] | growth of P.s. maculicola ES4326 [1] | inhibition of Psm ES4326 growth ([1]; wild-type plants, 0.65 mM INA seventy-two hours prior to infection (OD600=0.001)) | plants with chlorotic lesions [2] | plants showing slight yellowing [2] | effect of treatment alone on plants (no infection) [3] | increase in GUS activity compared to the uninduced plants ([4]; npr1-1 plants) | increase in GUS activity compared to the uninduced plants ([4]; wild-type BGL2-GUS plants) | induction of PR1 gene expression ([5]; npr1-2 mutant) | induction of PR1 gene expression ([5]; wild-type parental line) | localization of NPR1-GFP upon induction [6] |
| --- | --- | --- | --- | --- | --- | --- | --- | --- | --- | --- | --- | --- |
| O=C(O)c1cc(Cl)nc(Cl)c1 [INA, 2,6-dichloroisonicotinic acid] | ~10 | 1000 | about ten | Complete inhibition | at least eighty | less than ten | minimal effect | five | forty-eight | no induction | induction | exclusively in the nuclei of both the mesophyll cells and the guard cells |
| O=C(O)c1ccccc1O [SA, salicylic acid] | – | 1000 | about ten | – | at least eighty | less than ten | minimal effect | seven | fifty-two | only a minor induction | high level of PR1 gene induction | exclusively in the nuclei of both the mesophyll cells and the guard cells |
